ChEMBL document CHEMBL3507680, “University of Dundee, Gates Library screen for HepG2 cell viability”

Assay: Human HepG2 cell viability assay in 384 well format
Format: toxicity, cell-based
Parameters: dose 125 nL, time 70.5 hour; cytotoxicity at 70.5 h: concentration not given beside the values
Conditions: HepG2 cells, read-out: Inhibition

Point of comparison: Cc1cc(C(=O)N2CCN(Cc3ccco3)C(CCO)C2)cc(=O)[nH]1 (stereo not drawn), cytotoxicity at 70.5 h 21.1%. Against it:
- Cc1cc(N2CCCC2)nc(CNS(=O)(=O)Cc2ccccc2)n1 — lower, -7.92%
- COCC1N(C(=O)N2CCOCC2)[C@H]2CC[C@]1(O)CC2 (stereo partly drawn) — lower, -1.43%
- Cc1cnn(CCNCc2nc(Cc3ccccc3)no2)c1 — lower, -5.53%
- COCc1cnc2n1CCN(C1CCC1)C2C (stereo not drawn) — lower, -2.01%
- COc1cccc(CC(=O)N2CCCSCC2CN2CCCC2)c1 (stereo not drawn) — lower, -3.04%
- Cc1cc2[nH]c(=O)oc2cc1S(=O)(=O)N1CCC(N2CCCC2=O)CC1 — lower, -9.07%
- CN(C)c1cncc(C2CCN(CC3(O)CCCCC3)CC2)n1 — higher, 25.1%
- CCn1cc(NC(=O)NCC2(N3CCOCC3)CCSC2)cn1 (stereo not drawn) — lower, -1.94%
- c1cc(CCN2CCCC2CN2CCCC2)ccn1 (stereo not drawn) — higher, 30%
- Fc1ccc(-c2cnc(C3CCNCC3)cn2)cc1 — lower, -2.13%
- CN1CCCC(CCC(=O)N2CCc3c(nc(CC4CC4)[nH]c3=O)C2)C1 (stereo not drawn) — lower, -4.3%
- CCS(=O)(=O)N1Cc2nccn2CC(COc2cccnc2)C1 (stereo not drawn) — lower, -2.17%
- CC(NC(=O)CSCC#N)c1cccc(NC(=O)c2ccccc2)c1 (stereo not drawn) — lower, 10.4%
- Cc1ccccc1C1CCCN(C(=O)c2c[nH]c(=O)c(Cl)c2)C1 (stereo not drawn) — lower, -12%
- Cc1occc1C(=O)N1CCC2(CCCN(CC3CCC3)C2=O)C1 (stereo not drawn) — lower, -4.3%
- CN(Cc1cccnc1N)Cc1cccc2ncccc12 — lower, -15.9%
- O=C(CC1CC1)N1CCC2(CC1)CN(c1ccsc1)C(=O)CO2 — lower, -2.64%
- Cc1ccc(N2C[C@@H]3CN(Cc4ccsc4)CCO[C@@H]3C2)nn1 — lower, -11.5%
- CC(C)c1cc(NC(=O)Cn2ccc(=O)c3ccccc32)[nH]n1 — lower, 5.53%
- O=c1[nH]c(COc2ccc(Cl)cc2)nc2c1CCNC2 — lower, 16.3%
- c1cc(CNCc2ccc3c(c2)CCO3)cc(N2CCOCC2)n1 — lower, -9.64%
- COC(=O)CN1CCCn2nc(CCC(=O)N3CCCC3)cc2C1 — lower, 2.63%
- CC(C)(C)c1n[nH]c(C2CN(CCc3cccs3)CCO2)n1 (stereo not drawn) — lower, 3.37%
- O=C1CSc2ccccc2N1CC(=O)N1CCCCC1c1nccs1 (stereo not drawn) — lower, -8.8%
- O=C(CN1CCOC(Cn2cccn2)C1)NCc1cccs1 (stereo not drawn) — lower, -8.73%
- CNC(=O)C1(Cc2cc(C(C)C)no2)CCN(Cc2cccnc2)C1 (stereo not drawn) — lower, -5.78%
- CCc1ncc(C(=O)N2CCOCC2c2c(C)n[nH]c2C)s1 (stereo not drawn) — lower, -2.25%
- COCCN1CCC2(C1)c1ccccc1S(=O)(=O)N2Cc1ccccc1 (stereo not drawn) — lower, 1.99%
- CSCCC(=O)N1CCC(c2nnc(CN(C)CCO)n2C)CC1 — lower, -2.23%
- COCCCNC(=O)COc1ccccc1C(F)(F)F — lower, -5.58%
- COc1ccc(CCC(=O)NC2CCC(O)CC2)cc1OC (stereo not drawn) — lower, -4.91%
- Cc1ccc(CN(CCCO)Cc2nc3ccccc3[nH]2)s1 — lower, -3.29%
- Cc1cc(S(=O)(=O)N2CCCc3ccccc32)sc1C(=O)O — lower, -12.2%
- Cc1ccc(-c2cn[nH]c2C2CCCN(c3cc(N)ncn3)C2)cc1 (stereo not drawn) — lower, 5.4%
- COc1ccc(-c2nnc(SC(C)C(=O)NC3CCCC3)[nH]2)c(OC)c1 (stereo not drawn) — higher, 42.2%
- CSCC(=O)N[C@H]1CN(CC2CCOCC2)C[C@@H]1c1ccccc1 — lower, -4.95%
- Cc1ccc(NC(=O)[C@H]2C[C@H](C(=O)O)CN(CC(C)C)C2)cn1 — lower, -11.2%
- Cc1ccc(NCc2cnc3n2CCN(c2ncccn2)CC3)nn1 — lower, -2.11%
- CCN1CCN(C)C2(CCN(Cc3ccsc3)CC2)C1=O — lower, -9.43%
- Cc1nonc1C1CCCN1C(=O)CCc1cc2n(n1)CCCNC2 (stereo not drawn) — lower, -7.72%
- CN(C)c1ccc(CNC(=O)NCCc2cn3ccccc3n2)cn1 — lower, -3.45%
- Cc1csc(CN2CC[C@H]3C[C@H](c4nnc(C)[nH]4)O[C@@H]3C2)n1 — lower, 20.1%
- CN1C[C@@H]2CC[C@H](C1)N(Cc1ccccc1OCCN1CCOCC1)C2 — lower, 1.83%
- O=C(c1ccncn1)N1CCC[C@]2(C[C@H](Oc3ncccc3F)CO2)C1 — higher, 23.2%
- O=C(Nc1ccc2c(c1)OCO2)N1CCN(CCn2ccnc2)CC1 — lower, -6.54%
- O=S(=O)(C1CC1)N1CCC2(COCc3cnc(-c4cccnc4)nc32)C1 (stereo not drawn) — lower, -10.6%
- Cc1ccc(N2N=C(C(=O)N(C)Cc3ccco3)NCC2=O)cc1 — lower, 4.87%
- CC(Cn1cccn1)NCc1nc(-c2cccs2)no1 (stereo not drawn) — lower, 3.96%
- CCOC(=O)NCCC(=O)NCc1ccc(Oc2cccc(F)c2)nc1 — lower, -3.11%
- CN(C)C(=O)C1(CCCc2ccccn2)CCN1Cc1nccn1C (stereo not drawn) — lower, -6.27%
- CC(C)(C)c1noc(CCC(=O)N2CCN(Cc3ccco3)CC2)n1 — lower, -0.998%
- COCCCN1CC2(CCCCN2C(=O)c2ccsc2)CC1=O (stereo not drawn) — lower, 8.24%
- O=C(CCCNCc1ccccc1)N1CCCn2cncc2C1 — lower, -4.58%
- Cc1cccc(-c2nc(C)nn2CC(=O)NCC(C)C)c1 — lower, 5.13%
- CCC(C)(CNC(=O)c1ccon1)NC(=O)c1ccon1 (stereo not drawn) — lower, -8.49%
- COc1c(CNC2CCCN(c3ncccn3)C2)c(C(C)C)nn1C (stereo not drawn) — lower, 18.4%
- CCCc1noc(C2CCN(C(=O)C3CCCO3)CC2)n1 (stereo not drawn) — lower, -13.7%
- Cc1ccc2cc(CN(C)Cc3ncc[nH]3)c(=O)[nH]c2c1 — higher, 26.6%
- O=C(c1cnn2cccnc12)N1CCCC(n2ccnc2)C1 (stereo not drawn) — lower, -3.58%
- Cc1cn(Cc2nc(CC(C)C)nn2-c2ccccn2)c(=O)[nH]c1=O — lower, -1.31%
- CC1CCCCN1Cc1nc(C2CC2)no1 (stereo not drawn) — lower, -4.41%
- CC[C@@]1(O)CCN(C(=O)CCSCc2ccc(F)cc2)C[C@H]1O — lower, 14.3%
- CCOCC1CN(C(=O)Cc2ccccn2)Cc2cnn(C)c21 (stereo not drawn) — lower, -3.1%
- Cc1ccc(C(=O)N2C[C@@H]3CCCO[C@@H]3[C@H](N3CCOCC3)C2)cn1 — lower, 2.11%
- N#Cc1ccc(OCCN2CCc3cncnc3C2)cc1 — lower, 0.4%
- C[S+]([O-])c1nncn1CC(=O)c1ccc2c(c1)CCC2 (stereo not drawn) — lower, 8.46%
- COC(=O)c1sccc1S(=O)(=O)NCCc1ccoc1 — lower, -5.25%
- Cc1cc(OCC(=O)NC(C)c2ccc(N3CCOCC3)cc2)no1 (stereo not drawn) — lower, -3.83%
- COc1ccc(C)cc1C(=O)NC(CC(=O)O)c1cccs1 (stereo not drawn) — lower, -11.4%
- CCCC(NC(=O)c1ccc(OC)cc1F)c1nnn[nH]1 (stereo not drawn) — lower, -3.7%
- Cc1cc(C)n(CC(C)CNC(=O)NCc2csc(C)n2)n1 (stereo not drawn) — higher, 42.1%
- Cc1cccc(SC2CCN(C(=O)CCCn3cnnn3)CC2)c1 — lower, -15.1%
- COC1(CNC(=O)c2cccc(C#N)c2)CCSC1 (stereo not drawn) — higher, 42.8%
- Cc1cc(N2CCC(N(C)Cc3cccnc3)C2=O)n(C)n1 (stereo not drawn) — lower, 13.5%
- CNC(=O)CN(C)c1nc(-c2ccc(C(N)=O)cc2)nc2c1CCNC2 — lower, -0.358%
- Cc1cnn(-c2ccc(S(N)(=O)=O)cc2F)c1 — lower, 20%
- OC(COCc1cccs1)Cn1cc(Br)cn1 (stereo not drawn) — lower, -1.14%
- Cn1ncc2c(=O)[nH]c(CN3CCc4ccccc4C3)nc21 — lower, -15.9%
- CN(CC(=O)N1CCCC1)C(=O)c1ccccc1Nc1ccccc1 — lower, 18.3%
- O=C1N(c2ccccc2)C[C@H]2CN(C3CCC3)CCN12 — lower, -3.05%
- Cc1cc(NCc2ccc(O)cc2)n2nc(C)cc2n1 — lower, -2.08%
- CCNC(=O)c1ccc(NC(=O)N(C)Cc2cc(C)on2)c(C)c1 — lower, -5.12%
- COC1COC2(CCN(C(=O)c3cscn3)CC2)C1 (stereo not drawn) — lower, -6.82%
- COc1cc(C(C)=O)ccc1SCC(=O)Nc1ccccn1 — higher, 21.7%
- Cc1ccc(C(=O)N2CC(C(N)=O)O[C@H](C)C2)c(F)c1 (stereo partly drawn) — lower, -0.939%
- COCC(=O)N1CCO[C@H]2[C@H](OCc3cccnc3)CC[C@@H]21 — lower, 1.22%
- CC(C)C(=O)NC1CCCc2nc(N3CCOCC3)ncc21 (stereo not drawn) — lower, -0.959%
- CCn1c(Nc2ccccc2OC)nc2c(C)nn(C)c2c1=O — lower, 14%
- O=C(NC1CCCc2nc(N3CCCCC3)ncc21)C1CCCC1 (stereo not drawn) — lower, -4.53%
- COC(=O)c1ccc(C2SCC(=O)Nc3c2cnn3C(C)(C)C)cc1 (stereo not drawn) — lower, -13.2%
- O=C(c1cc2cc(F)ccc2[nH]1)N1CCCCC1Cn1cccn1 (stereo not drawn) — lower, -0.801%
- Cc1nc2c(c(=O)n1C)CN(C(=O)C1CCCN(C(=O)N(C)C)C1)C2 (stereo not drawn) — lower, -0.169%
- Cc1ccc(C(=O)N2CCC(n3cc(CO)nn3)CC2)cn1 — lower, 11%
- CS(=O)(=O)c1ccc(NCC2CCCO2)c(S(C)(=O)=O)c1 (stereo not drawn) — lower, -9.12%
- CS(=O)(=O)CC1(CNc2cc(C#N)c3cc(Cl)ccc3n2)CC1 — lower, -6.39%
- CCOC1CCN(CC(=O)Nc2oc(C)c3c(C)n[nH]c(=O)c23)CC1 — lower, -4.42%
- CN(Cc1ccsc1)C(=O)CN1CCOC(Cn2cncn2)C1 (stereo not drawn) — lower, -1.49%
- CCCc1n[nH]c(C2CN(CCNC3CCCCC3)CCO2)n1 (stereo not drawn) — lower, 9.34%
- c1cc2nccc(CC3CCCN(Cc4c[nH]cn4)CC3)c2cn1 (stereo not drawn) — lower, -0.459%
- Cn1cc(C2=CCN(CCCC(=O)Nc3ccc(C#N)cc3)CC2)cn1 — lower, 18.4%
- O=C([C@@H]1CCCO1)N1CCC(Cn2cc(-c3ccsc3)nn2)CC1 — lower, -7.52%
- CC(C)(C)Cc1noc2ncc(C(=O)N3CCC3)cc12 — lower, -6.81%
- O=C1COC2(CCN(C(=O)[C@H]3CCCO3)CC2)CN1Cc1ccccn1 — lower, 17.4%
- CCN(CC(=O)Nc1cc(Cl)ccc1C)C(=O)c1cnccn1 — lower, 0.456%
- O=S1(=O)NC(c2ccnc(N3CCCC3)n2)=Nc2ccccc21 — lower, -3.65%
- O=C(NC1CC1)[C@H]1CC[C@@H]2[C@@H](CCN2CCOCc2ccccc2)O1 — lower, -8.73%
- Cc1ccc(C(=O)N2CC[C@H](Oc3cccnc3C)[C@@H](O)CC2)s1 — lower, 4.2%
- c1ccc(-c2nccc(CNC3CCc4ncnn4C3)n2)cc1 (stereo not drawn) — lower, -4.99%
- CCS(=O)(=O)N1CCc2ccc(NC(=O)NC3CCCCC3)cc21 — lower, -7.09%
- Cc1cc(CCC(=O)NCc2nccn2C)ccc1Br — lower, 1.59%
- O=C(NC[C@H]1C[C@@H]2CCN1C[C@@H]2CN1CCCC1)c1ccco1 — lower, -4.55%
- Cn1ncc(C(=O)N2CCOCC2)c1Cl — lower, -13.1%
